Data taken from paper PMC10967572, “Induction of Oxidative Stress and Ferroptosis in Triple-Negative Breast Cancer Cells by Niclosamide via Blockade of the Function and Expression of SLC38A5 and SLC7A11” (Antioxidants, 2024).

Test system: TNBC cells (MB231 and TXBR100)
Assay: Colony formation (clonogenic) assay
Assay type: cell-based, human
Details: niclosamide 0.5 μM, 10 days
Source text: We performed the colony formation (clonogenic) assay with different doses of niclosamide on two different TNBC cell lines. Initial seeding was done with 500 cells/well and culture was continued for 10 days with culture medium replaced with fresh medium with freshly prepared niclosamide every other day. At the end of the 10-day time period, the medium was removed and the colonies were fixed with ice-cold methanol/acetone and then stained with Giemsa stain.

## O=C(Nc1ccc([N+](=O)[O-])cc1Cl)c1cc(Cl)ccc1O [niclosamide]
  decrease in colony formation: > 50%
